This is an account of results in ChEMBL document CHEMBL1152983, “Substitution of the arginine/leucine residues in apidaecin Ib with peptoid residues: effect on antimicrobial activity, cellular uptake, and proteolytic degradation” (J Med Chem, 2009).

Data set [1] can be described thus: Chemical stability assessed as compound degradation at 2 mg/mL within 30 mins by HPLC and ESI-MS analysis in presence of trypsin. The data set is classed as physicochemical. To be noted: isolated protein, 0.5 h.
Data set [2] deals with Escherichia coli. The experiment in a line: Antimicrobial activity against Escherichia coli ML35 after 18 hrs by broth microdilution susceptibility test. The data set is classed as functional. The conditions noted are these: ML35, 18 h. Background: In broth dilution the organism is exposed to a series of concentrations in liquid medium.
The test system of data set [3] is Escherichia coli. Description: Antimicrobial activity against Escherichia coli O18K1H7 after 18 hrs by broth microdilution susceptibility test. The conditions noted are these: O18K1H7, 18 h. The data set is classed as functional.
The test system of data set [4] is Escherichia coli. The experiment in a line: Antimicrobial activity against Escherichia coli ATCC 25922 after 18 hrs by broth microdilution susceptibility test. It counts as functional. The conditions noted are these: ATCC 25922, 18 h.
Another data set has as its system Klebsiella pneumoniae. The experiment in a line: Antimicrobial activity against Klebsiella pneumoniae 22 after 18 hrs by broth microdilution susceptibility test. The conditions noted are these: Klebsiella pneumoniae, 22, 18 h. It counts as functional.
In data set [5] the test system is Salmonella enterica subsp. enterica. The experiment in a line: Antimicrobial activity against Salmonella enteritidis D5 after 18 hrs by broth microdilution susceptibility test. It counts as functional, Salmonella enterica subsp. enterica serovar Enteritidis. To be noted: D5, 18 h.
The test system is the same in data set [6]. The experiment in a line: Antimicrobial activity against Salmonella enteritidis PD1 after 18 hrs by broth microdilution susceptibility test. It counts as functional, Salmonella enterica subsp. enterica serovar Enteritidis. The conditions noted are these: PD1, 18 h.
For data set [7] the test system is unchanged. The experiment in a line: Antimicrobial activity against Salmonella Typhimurium ATCC 14028 after 18 hrs by broth microdilution susceptibility test. The data set is classed as functional, Salmonella enterica subsp. enterica serovar Typhimurium. To be noted: ATCC 14028, 18 h.
A short description of data set [8]: Toxicity in human erythrocytes assessed as hemolytic activity at 30 uM after 60 mins. The data set is classed as cell-based, Erythrocyte. The conditions noted are these: read-out: Activity.
A short description of data set [9]: Toxicity in human erythrocytes assessed as hemolytic activity at 300 uM after 60 mins. It counts as cell-based, Erythrocyte. To be noted: read-out: Activity.
A short description of data set [10]: Membrane permeabilization in eukaryotic membrane model consisting of single unilamellar vesicle of L-alpha-phosphatidylcholine-cholesterol assessed as 5(6)-carboxyfluorescein release at high peptide-to-lipid ratio after 20 mins by fluorescence assay. It counts as ADME, cell membranes.
A short description of data set [11]: Membrane permeabilization in eukaryotic membrane model consisting of single unilamellar vesicle of L-alpha-phosphatidylcholine-cholesterol assessed as 5(6)-carboxyfluorescein release at high peptide-to-lipid ratio after 50 mins by fluorescence assay. It counts as ADME, cell membranes.
Data set [12] in a line: Chemical stability assessed as compound degradation at 2 mg/mL after 24 hrs by HPLC and ESI-MS analysis in presence of trypsin. It counts as physicochemical. The conditions noted are these: isolated protein.

Converted amounts (≈) assume the structure as drawn. Non-standard residues stand in square brackets, D forms with d. Residues, ends and D or L forms follow the SMILES beside them. Gly(N-(CH2)3-guanidino) = N=C(N)NCCCNCC(=O)O

On to `CC[C@H](C)[C@H](NC(=O)[C@H](Cc1ccc(O)cc1)NC(=O)[C@@H](NC(=O)[C@@H]1CCCN1C(=O)[C@H](CCCNC(=N)N)NC(=O)[C@H](CC(N)=O)NC(=O)[C@H](CC(N)=O)NC(=O)CN)C(C)C)C(=O)N1CCC[C@H]1C(=O)N[C@@H](CCC(N)=O)C(=O)N1CCC[C@H]1C(=O)N[C@@H](CCCNC(=N)N)C(=O)N1CCC[C@H]1C(=O)N1CCC[C@H]1C(=O)N[C@@H](Cc1cnc[nH]1)C(=O)N1CCC[C@H]1C(=O)N[C@@H](CCCNC(=N)N)C(=O)N[C@@H](CC(C)C)C(=O)O` [APIDAECIN], for which, in data set [1], the Stability entry is reported as “Unstable”. The MIC – broadly, the least concentration at which growth counts as inhibited – with Escherichia coli [2] stood at 8 µM (≈ 16.9 µg/mL); in the data set on Escherichia coli [3] it was 8 µM (≈ 16.9 µg/mL); against Escherichia coli [4], 8 µM (≈ 16.9 µg/mL); in the data set on Klebsiella pneumoniae, 64 µM (≈ 135 µg/mL); in data set [5] it was 8 µM (≈ 16.9 µg/mL); in data set [6] it was 8 µM (≈ 16.9 µg/mL). Moreover, the MIC in data set [7] is 4 µM (≈ 8.43 µg/mL). Besides, the hemolysis at 1 h, 30 µM in [8] is not above 2%. Further, the hemolysis at 1 h, 300 µM in data set [9] amounted to 1.19%. The Activity entry in data set [10] and in [11] was “Not Active” throughout.

Regarding `CC[C@H](C)[C@H](NC(=O)[C@H](Cc1ccc(O)cc1)NC(=O)[C@@H](NC(=O)[C@@H]1CCCN1C(=O)[C@H](CCCNC(=N)N)NC(=O)[C@H](CC(N)=O)NC(=O)[C@H](CC(N)=O)NC(=O)CN)C(C)C)C(=O)N1CCC[C@H]1C(=O)N[C@@H](CCC(N)=O)C(=O)N1CCC[C@H]1C(=O)N[C@@H](CCCNC(=N)N)C(=O)N1CCC[C@H]1C(=O)N1CCC[C@H]1C(=O)N[C@@H](Cc1cnc[nH]1)C(=O)N1CCC[C@H]1C(=O)N(CCCNC(=N)N)CC(=O)N[C@@H](CC(C)C)C(=O)O` (H-GNNRPVYIPQPRPPHP[Gly(N-(CH2)3-guanidino)]L-OH), in [12], the Stability entry is reported as “Stable”. Besides, the MIC (against Escherichia coli [2]; against Escherichia coli [3]; against Escherichia coli [4]; in the data set on Klebsiella pneumoniae; in data set [5]; in [6]) was more than 128 µM in each case. The compound also yielded an MIC in data set [7] of more than 128 µM. Further, the hemolysis at 1 h, 30 µM in data set [8] was not above 2%. In addition, in [9], the hemolysis at 1 h, 300 µM was 0.44%. The Activity result in [10] and in [11] was “Not Active” each time.
